Patent US6512007B1, “Use of galiella lactone” (Bayer Aktiengesellschaft, priority 2000, dated 2003)

Tests used:
[1] = tested on: IL-6-induced and Stat3-mediated SEAP synthesis; assay: Inhibition of IL-6- and Stat3-mediated SEAP reporter gene expression in HepG2 cells; format: cell-based; conditions: Homo sapiens; HepG2, induction with IL-6 10 ng/ml, 24 h; read-out: concentration for half-maximal SEAP synthesis inhibition (IC50)
Procedure: The following bioassay was carried out for fundamental exemplary experiments for detecting the inhibition of IL-6- and Stat3-mediated gene expression:
The initial vector used was the vector pTK/SEAP (Biochem. Biophys. Res. Commun., 1996, 226: 214-21) (see FIG. 1) which contains the gene of secreted alkaline phosphatase (SEAP) as reporter gene. This vector was linearized with the restriction enzyme Nhel and then dephosphorylated. The following oligonucleotides
which contain a binding site for Stat3 and Stat1 proteins (cf. Proc. Natl. Acad. Sci. USA, 1995, 92: 3041-5) were phosphorylated, ligated and precipitated with ethanol. […]
The HepG2 cells were cultivated in a moist atmosphere with 5% CO2 at 37° C. in 50 ml of DMEM (Gibco BRL, Life Technologies GmbH. Dieselstr, 5, 76344 Eggenstein) with 10% fetal calf serum, and penicillin/streptomycin (100 iu) in 600 ml cell culture bottles. […] The cell count was determined using a counting chamber and was adjusted to 6-8×10^6 cells/ml. […]
Cytotoxic effects of the compounds on the cells were investigated by microscopy after 24 h. Likewise after 24 h. the SEAP activity was determined using the Phospha-Light™ chemoluminescence assay (Perkins-Elmer Applied Biosystems, Langen) and, under the chosen conditions, is directly proportional to the SEAP concentration in the analysed sample. […]

Solubility in solvents = format: physicochemical
Text: Galiella lactone has the physical and chemical properties described hereinafter. […] It was possible with the aid of the mass spectra (Table 1) to establish firstly the molecular weight of 194 Da and then the molecular formula of C11H14O3.

C[C@H]1C=C2C(=O)O[C@H]3CC[C@@H](C1)[C@@]23O [galiella lactone]
IC50 [1]: 50 to 100 nM | solubility in nonpolar solvents (Solubility in solvents; cyclohexane, n-pentane, n-hexane): scarcely soluble | solubility in polar solvents (Solubility in solvents; methanol, pyridine, ethyl acetate, acetonitrile, TBME, THF and water): readily soluble
